13 compounds from patent EP0120613A1, “Penem derivatives and precursors” (BEECHAM GROUP PLC, priority 1983, dated 1984) can be followed below.

The test system of one assay is Staphylococci Russell. The assay can be described thus: Antibacterial activity of alkylidene-penems (MIC). It counts as cell-based. As to conditions: compound alone.
In another assay the test system is Staphylococci Oxford. The assay is described as follows: Antibacterial activity of alkylidene-penems (MIC). It counts as cell-based. To be noted: compound alone.
For assay [1], the system named is range of resistant strains. The assay is described as follows: MIC of Example 1b alone, microtitre technique (Table 3). To be noted: Ex 1b alone; strains of Table 3. The assay is classed as cell-based.
The test system of a further assay is S Aureus Russell. The assay can be described thus: Effect of alkylidene-penems on the MIC of amoxycillin. The assay is classed as cell-based. To be noted: Amoxycillin alone.
For another assay, the system named is Kleb aerogenes. The assay is described as above. The assay is classed as cell-based, Klebsiella aerogenes. To be noted: Amoxycillin alone.
In a further assay the test system is E. coli JT39 (RTEM). The description is as above. It counts as cell-based. As to conditions: Amoxycillin alone.
The next assay has as its system Ps.aeruginosa Charlier. The assay can be described thus: MIC of broad spectrum cephalosporins with Example 1b, microtitre technique. It counts as cell-based.
A further assay relates to Ps.aeruginosa Badia IR. Described as above. The assay is classed as cell-based.
A further assay concerns S.marcescens V697. The assay is described as above. It counts as cell-based.
The next assay concerns S.marcescens HCN 3956. The description is as above. The assay is classed as cell-based.
The next assay has as its system C.freundii T1739. The assay is described as above. It counts as cell-based.
The next assay deals with C.freundii 423. The description is as above. It counts as cell-based.
The next assay deals with C.freundii T562. Described as above. The assay is classed as cell-based.
For the next assay, the system named is M.morganii 978. The assay is described as above. It counts as cell-based.
The subject of the next assay is E.cloacae 4508. The description is as above. The assay is classed as cell-based.
In another assay the test system is E.cloacae V692/80. The assay is described as above. It counts as cell-based.
In another assay the test system is E.cloacae P383. The description is as above. It counts as cell-based.
For the next assay, the system named is E.cloacae 159/167. The assay is described as above. It counts as cell-based.
The subject of the next assay is E.cloacae Dokt 5. The assay is described as above. It counts as cell-based.
The test system of a further assay is E.aerogenes 53. The assay is described as above. The assay is classed as cell-based.
The next assay concerns E.aerogenes 55. Described as above. It counts as cell-based.
Another assay relates to E.aerogenes P99. Described as above. It counts as cell-based.
In another assay the test system is E.coli JT410. The assay is described as follows: Effect of alkylidene-penems on the MIC of cephaloridine. As to conditions: Cephaloridine alone. It counts as cell-based.

Where only a bound is given, the exact number is not on record here.

What is called MIC is the least concentration at which growth counts as inhibited. As to `O=C(O)C1=CSC2/C(=C\c3ccco3)C(=O)N12` (racemic) [Example 1b, (5 RS) Sodium (Z) -6- Furfurylidenepenem - 3 - carboxylate], the results for the “MIC” value (against Staphylococci Russell; in the assay with Staphylococci Oxford; in assay [1]) were 16.0 µg/mL, 16.0 µg/mL and over 80 µg/mL, respectively.
In the case of `CCSC1=C(C(=O)O)N2C(=O)/C(=C/c3ccco3)C2S1` (racemic) [Example 2b, (5RS) Sodium 2-Eth^ylthio - (Z)-6-furfurylidenepenem-3-carboxylate], the “MIC” value in the assay with Staphylococci Russell was 10.0 µg/mL; against Staphylococci Oxford, 5.0 µg/mL.
For `O=C(O)C1=C(SCCO)SC2/C(=C\c3ccco3)C(=O)N12` (racemic) [Example 3b, (5RS) Sodium (Z)-6-Furfurylidene-2-(2-hydroxyethylthio) penem-3-carboxylate], the “MIC” value in the assay with Staphylococci Russell and against Staphylococci Oxford was 12.5 µg/mL each time.
Consider `CCSC1=C(C(=O)O)N2C(=O)/C(=C/c3ccc(COC(C)=O)o3)C2S1` (racemic) [Example 5b, (SRS) Sodium (z)-6-(5-Acetoxymethylfurfurylidene)-2-ethylthiopenem-3-carboxylate], for which the minimum inhibitory concentration (MIC) in the assay with Staphylococci Russell came to 12.5 µg/mL; in the assay with Staphylococci Oxford it was 3.1 µg/mL.
For `O=C(O)C1=CSC2/C(=C\c3cccs3)C(=O)N12` (racemic) [Example 7b, (5RS) Sodium (Z)-6-(2-thienyl)methylenepenem-3-carboxylate], in that order: 50 µg/mL and 100 µg/mL.
The matching figures for `O=C(O)C1=CSC2/C(=C\c3ccsc3)C(=O)N12` (racemic) [Example 8b, (5RS) Sodium (Z)-6-(3-thienyl)methylenepenem-3-carboxylate]: 12.5 µg/mL and 50 µg/mL.
For `O=C(O)C1=CSC2/C(=C/c3ccco3)C(=O)N12` (racemic) [Example 9b, (5RS) Sodium (E)-6-Furfurylidenepenem-3-carboxylate], the entries for the “MIC” value in the assay on Staphylococci Russell and against Staphylococci Oxford were 125 µg/mL and 62 µg/mL, respectively.
For `O=C(O)C1=CSC2/C(=C\c3ccc(Br)o3)C(=O)N12` (racemic) [Example 11b, (5RS) Sodium (Z)-6-(5-Bromofurfurylidene)penem-3-carboxylate], in that order: 50 µg/mL and 50 µg/mL.
With `O=C(O)C1=CSC2/C(=C/c3ccoc3)C(=O)N12` (racemic) [Example 12b, (5RS) Sodium (E)-6-(3-Furylmethylene)penem-3-carboxylate], the “MIC” value against Staphylococci Russell is 50 µg/mL; with Staphylococci Oxford it was 100 µg/mL.
In the case of `CC1(C)S[C@@H]2[C@H](NC(=O)[C@H](N)c3ccc(O)cc3)C(=O)N2[C@H]1C(=O)O` [Amoxycillin], the “MIC (µg/ml) of antibiotic” value in the assay with S Aureus Russell was 500 µg/mL; in the assay with Kleb aerogenes, 500 µg/mL; in the assay with E. coli JT39 (RTEM), 2000 µg/mL.
For `CO/N=C(\C(=O)N[C@@H]1C(=O)N2C(C(=O)O)=C(COC(C)=O)CS[C@H]12)c1csc(N)n1` [Cefotaxime], the “MIC Cephalosporin” value with Ps.aeruginosa Charlier (Cefotaxime alone) is over 80 µg/mL; in the assay with Ps.aeruginosa Badia IR (Cefotaxime alone) it was over 80 µg/mL; with S.marcescens V697 (Cefotaxime alone) it was over 80 µg/mL; in the assay with S.marcescens HCN 3956 (Cefotaxime alone) it was 80 µg/mL; with C.freundii T1739 (Cefotaxime alone), 40 µg/mL; in the assay on C.freundii 423 (Cefotaxime alone) it was 40 µg/mL. Besides, the “MIC Cephalosporin” value in the assay with C.freundii T562 (Cefotaxime alone) is 40 µg/mL; with M.morganii 978 (Cefotaxime alone), over 80 µg/mL; with E.cloacae 4508 (Cefotaxime alone), over 80 µg/mL; with E.cloacae V692/80 (Cefotaxime alone), over 80 µg/mL; in the assay on E.cloacae P383 (Cefotaxime alone), over 80 µg/mL; with E.cloacae 159/167 (Cefotaxime alone), over 80 µg/mL. Further, the “MIC Cephalosporin” value was over 80 µg/mL in the assay with E.cloacae Dokt 5 (Cefotaxime alone), over 80 µg/mL with E.aerogenes 53 (Cefotaxime alone), 80 µg/mL in the assay with E.aerogenes 55 (Cefotaxime alone) and over 80 µg/mL in the assay on E.aerogenes P99 (Cefotaxime alone).
As to `CC(C)(O/N=C(\C(=O)N[C@@H]1C(=O)N2C(C(=O)[O-])=C(C[n+]3ccccc3)CS[C@H]12)c1csc(N)n1)C(=O)O` [Ceftazidine], the “MIC Cephalosporin” value in the assay on Ps.aeruginosa Charlier (Ceftazidine alone) is 80 µg/mL; in the assay on Ps.aeruginosa Badia IR (Ceftazidine alone), over 80 µg/mL; in the assay on S.marcescens V697 (Ceftazidine alone), 80 µg/mL; in the assay on S.marcescens HCN 3956 (Ceftazidine alone) it was 5 µg/mL; with C.freundii T1739 (Ceftazidine alone), 80 µg/mL; in the assay on C.freundii 423 (Ceftazidine alone), 80 µg/mL. Besides, the “MIC Cephalosporin” value in the assay with C.freundii T562 (Ceftazidine alone) is 80 µg/mL; in the assay with M.morganii 978 (Ceftazidine alone) it was 2.5 µg/mL; in the assay with E.cloacae 4508 (Ceftazidine alone), over 80 µg/mL; in the assay on E.cloacae V692/80 (Ceftazidine alone), over 80 µg/mL; in the assay with E.cloacae P383 (Ceftazidine alone), over 80 µg/mL; in the assay with E.cloacae 159/167 (Ceftazidine alone) it was over 80 µg/mL. In addition, the “MIC Cephalosporin” value in the assay on E.cloacae Dokt 5 (Ceftazidine alone) was over 80 µg/mL; in the assay with E.aerogenes 53 (Ceftazidine alone) it was over 80 µg/mL; in the assay with E.aerogenes 55 (Ceftazidine alone), 80 µg/mL; in the assay on E.aerogenes P99 (Ceftazidine alone), 80 µg/mL.
With `O=C(Cc1cccs1)N[C@@H]1C(=O)N2C(C(=O)[O-])=C(C[n+]3ccccc3)CS[C@H]12` [Cephaloridine], the “MIC (µg/ml) of antibiotic” value with E.coli JT410 was 62 to 125 µg/mL.
